Test results taken from article PMC4956231, “Molecular Mechanisms for Drug Hypersensitivity Induced by the Malaria Parasite’s Chloroquine Resistance Transporter” (PLoS Pathogens, 2016).
Where two headings read alike, the source gives them in different places. Marks after values point to notes of the source that are not given here.

Key:
[1] = test system: C=C[C@H]1C[N@@]2CC[C@H]1C[C@H]2[C@H](O)c1ccnc2ccc(OC)cc12; experiment: cells, lysate or membranes; details: other: transport via 76I-PfCRT^K1 in oocytes; CQ pH 6.0, quinine and quinidine pH 5.0; 27.5 °C
[2] = test system: C=C[C@H]1C[N@@]2CC[C@H]1C[C@@H]2[C@@H](O)c1ccnc2ccc(OC)cc12; experiment: cells, lysate or membranes; details: other: transport via 76I-PfCRT^K1 in oocytes; CQ pH 6.0, quinine and quinidine pH 5.0; 27.5 °C
[3] = test system: parasites carrying isoforms of PfCRT^CQR; details: in vitro studies, cited from earlier work
[4] = target: PfCRT^Dd2 (Plasmodium falciparum, UniProt Q9N623, A220S/I356T/K76T/M74I/N326S/N75E/Q271E/R371I); assay type: cell-based; details: extracellular concentrations of 1 and 2 mM; pH 5.5; 15 μM unlabeled CQ
Description: The uptake of [^3H]CQ (0.25 μM) was measured in the absence (solvent control) or presence of the test compounds (extracellular concentrations of 1 and 2 mM). The assays were conducted at pH 5.5 and in the presence of 15 μM unlabeled CQ.

[5] = test system: noninjected oocytes and oocytes expressing PfCRT variants or PfNT1; experiment: Trans-stimulation of [3H]CQ uptake by microinjected compound, all oocyte types; assay type: cell-based, Plasmodium falciparum; details: any of the oocyte types, estimated intracellular concentrations 5 and 10 mM
Description: A subset of experiments measured the ability of unlabeled amantadine to trans-stimulate the uptake of [^3H]CQ into the oocyte. Immediately prior to the commencement of the experiment, the oocytes (days 3–4 post-injection of the cRNA) were microinjected with either amantadine (estimated intracellular concentrations of 1, 2.5, 5, 10, 15, or 20 mM) or a control treatment (buffer, spermine, or histidine; the estimated intracellular concentrations of spermine and histidine were 5 and 10 mM). The volume injected was 50 nL and the intracellular concentrations were calculated using previous estimates of the volume of stage V-VI oocytes (~400 nL [77]). The resealed oocytes were then incubated at 16–18°C in OR^2+ buffer for approximately 5 min and the influx of [^3H]CQ was measured as described above. […] The Michaelis-Menten equation was then fitted to the data to derive the kinetic parameters for the trans-stimulation of [^3H]CQ transport by amantadine.

[6] = target: T1, 76I-PfCRT^K1 (Plasmodium falciparum, UniProt Q9N623, A220S/K76I/M74I/N326S/N75E/Q271E/R371I); assay type: cell-based; details: for Apparent Vmax: transport via 76I-PfCRT^K1 in oocytes, CQ pH 6.0, quinine and quinidine pH 5.0
Description: (§1) For each treatment, 10 oocytes were transferred to a 5 mL polystyrene round bottom tube (Falcon) and washed twice with 3.5 mL of ND96 buffer, with the residual buffer removed by pipette. […] The assay was terminated by removing the reaction buffer with a pipette and washing the oocytes twice with 3.5 mL of ice-cold ND96 buffer. Each oocyte was transferred to a separate well of a white 96-well plate (NUNC or PerkinElmer), incubated overnight at room temperature in 30 μL of 10% SDS, and mixed on an orbital shaker the following day for approximately 5 min. The lysed oocyte was then combined with 150 μL of MicroScint-40 microscintillant (PerkinElmer), the plate covered with a TopSeal-A (PerkinElmer), and the radioactivity measured with a PerkinElmer MicroBeta^2 microplate liquid scintillation analyzer.

[7] = test system: 76N-PfCRT^K1; experiment: [3H]drug transport into Xenopus oocytes expressing PfCRT; assay type: cell-based, Plasmodium falciparum; details: transport via 76N-PfCRT^K1 in oocytes, CQ pH 6.0, quinine and quinidine pH 5.0; for Km: read-out: Apparent Km
Description: as §1
Note that noninjected oocytes and oocytes expressing PfCRT^3D7 take up [^3H]CQ to similar (low) levels via simple diffusion of the neutral species of the drug; this represents the ‘background’ level of [^3H]CQ accumulation in oocytes (refer to Martin et al. for full data and discussion).

[8] = test system: noninjected oocytes; experiment: [3H]drug uptake into noninjected oocytes (background accumulation); assay type: cell-based, Xenopus laevis; details: [3H]drug […]
Description: as §1

[9] = test system: PfCRT^Dd2; experiment: [3H]drug transport into Xenopus oocytes expressing PfCRT; assay type: cell-based, Plasmodium falciparum; details: oocytes expressing PfCRT^Dd2; [3H]drug […], pH 5.0, 1 μM unlabeled drug (S4 Fig)
Description: as §1

[10] = test system: PfCRT^K1; experiment: as above; assay type: cell-based, Plasmodium falciparum; details: for rate of uptake mediated by PfCRT^K1, greater than that measured for PfCRT^Dd2: S4 Fig; for rate of uptake: oocytes expressing PfCRT^K1, [3H]drug […], pH 5.0, 1 μM unlabeled drug (Fig 2B, C); for rate of transport, times lower than that measured for CQ: total drug 1.25 μM vs ~12-fold higher total CQ
Description: as §1

[11] = test system: PfCRT^CQR; details: oocyte system, inhibitor of PfCRT^CQR; cited from earlier work
[12] = target: 76I,369F-PfCRT^K1 (Plasmodium falciparum, UniProt Q9N623, A220S/K76I/M74I/N326S/N75E/Q271E/R371I/V369F); experiment: Inhibition of [3H]amantadine transport in oocytes; assay type: cell-based; details: via 76I,369F-PfCRT^K1 in oocytes
Description: as §1

[13] = target: T1, 76I-PfCRT^K1; experiment: Inhibition of [3H]amantadine transport in oocytes; assay type: cell-based; details: via 76I-PfCRT^K1 in oocytes
Description: as §1

[14] = test system: PfCRT^K1; experiment: Inhibition of [3H]amantadine transport in oocytes; assay type: cell-based, Plasmodium falciparum; details: via PfCRT^K1 in oocytes
Description: as §1

[15] = artemisinin and/or dihydroartemisinin
[16] = pH 5.0, 1 μM unlabeled drug (Fig 2B, C)
[17] = pH 5.0, 1 μM unlabeled drug (S4 Fig)
[18] = transport via PfCRT^K1 in oocytes, CQ pH 6.0, quinine and quinidine pH 5.0

T1 sequence (Q9N623 whole entry A220S/K76I/M74I/N326S/N75E/Q271E/R371I): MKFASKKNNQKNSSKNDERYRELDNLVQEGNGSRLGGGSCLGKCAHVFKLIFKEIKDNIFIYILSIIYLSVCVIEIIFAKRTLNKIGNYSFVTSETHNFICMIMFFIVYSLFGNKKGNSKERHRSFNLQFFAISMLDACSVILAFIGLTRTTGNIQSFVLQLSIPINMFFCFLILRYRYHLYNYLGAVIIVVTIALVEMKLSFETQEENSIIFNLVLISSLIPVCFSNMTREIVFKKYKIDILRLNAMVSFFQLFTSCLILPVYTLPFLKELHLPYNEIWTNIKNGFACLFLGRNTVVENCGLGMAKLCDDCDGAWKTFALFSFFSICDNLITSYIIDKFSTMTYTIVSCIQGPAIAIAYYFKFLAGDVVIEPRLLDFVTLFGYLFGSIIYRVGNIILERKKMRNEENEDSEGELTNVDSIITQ
Chain of 76I,369F-PfCRT^K1 (Q9N623 whole entry A220S/K76I/M74I/N326S/N75E/Q271E/R371I/V369F): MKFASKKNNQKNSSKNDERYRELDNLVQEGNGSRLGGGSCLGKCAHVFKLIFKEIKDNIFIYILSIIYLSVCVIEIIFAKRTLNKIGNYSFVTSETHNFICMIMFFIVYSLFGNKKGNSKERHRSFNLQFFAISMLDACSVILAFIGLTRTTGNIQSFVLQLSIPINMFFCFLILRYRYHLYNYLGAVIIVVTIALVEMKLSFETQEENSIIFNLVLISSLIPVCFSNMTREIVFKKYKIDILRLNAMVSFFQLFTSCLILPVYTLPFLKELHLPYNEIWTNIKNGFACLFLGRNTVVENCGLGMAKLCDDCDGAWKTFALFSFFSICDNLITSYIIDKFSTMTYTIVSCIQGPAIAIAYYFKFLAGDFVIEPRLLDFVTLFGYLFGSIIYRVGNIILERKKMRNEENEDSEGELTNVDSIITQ
Chain of PfCRT^Dd2 (Plasmodium falciparum, UniProt Q9N623, A220S/I356T/K76T/M74I/N326S/N75E/Q271E/R371I) (Q9N623 whole entry M74I/N75E/K76T/A220S/Q271E/N326S/I356T/R371I): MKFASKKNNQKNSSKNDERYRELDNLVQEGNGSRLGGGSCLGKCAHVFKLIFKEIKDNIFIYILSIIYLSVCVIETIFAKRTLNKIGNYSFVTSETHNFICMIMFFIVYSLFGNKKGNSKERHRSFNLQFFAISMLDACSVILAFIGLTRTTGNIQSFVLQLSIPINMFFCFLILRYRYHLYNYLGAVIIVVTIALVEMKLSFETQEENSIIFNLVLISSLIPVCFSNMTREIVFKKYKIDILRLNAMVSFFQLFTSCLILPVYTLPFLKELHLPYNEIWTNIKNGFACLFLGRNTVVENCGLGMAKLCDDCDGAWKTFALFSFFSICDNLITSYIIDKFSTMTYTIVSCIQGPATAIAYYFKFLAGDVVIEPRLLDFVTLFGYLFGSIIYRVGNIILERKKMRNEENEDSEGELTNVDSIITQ

With “76I-PfCRT^K1 (Plasmodium falciparum; A220S/K76I/M74I/N326S/N75E/Q271E/R371I)” the Km [1] was 0.42 ± 0.04^c,f (4) μM and the Km [2] was 24.1 ± 3.0^f (6) μM.
For `C[C@@H]1CC[C@H]2[C@@H](C)C(=O)O[C@@H]3O[C@@]4(C)CC[C@@H]1[C@]32OO4` [artemisinin], the “decrease in the IC50 induced by isoforms of PfCRT^CQR (hypersensitivity)” value (“decrease in the IC50 induced by isoforms” for short) [3, 15] is given as 1.9–3.7 fold.
For `C[C@H]1[C@@H](O)O[C@@H]2O[C@@]3(C)CC[C@H]4[C@H](C)CC[C@@H]1[C@@]24OO3` [dihydroartemisinin], the “decrease in the IC50 induced by isoforms” value [3, 15] is listed as 1.9–3.7 fold.
For `N[C@@H](Cc1c[nH]cn1)C(=O)O` [histidine], the “effect on accumulation of [3H]CQ in oocytes expressing PfCRT” value [4] was “do not inhibit” and the “effect on [3H]CQ uptake (trans-stimulation)” value [5] was “neither spermine nor histidine altered”.
In the case of `CCCCN(CCCC)CC(O)c1cc(Cl)cc2c1-c1ccc(Cl)cc1/C2=C/c1ccc(Cl)cc1` (centres unmarked) [lumefantrine], the “decrease in the IC50 induced by isoforms” value [3] is listed as 1.5–3.2 fold.
With `C=C[C@H]1C[N@@]2CC[C@H]1C[C@@H]2[C@@H](O)c1ccnc2ccc(OC)cc12` [quinidine] the “Apparent Vmax” value [6] was 7.2 ± 0.5^e,g (6) pmol per oocyte/h, the “Apparent Vmax” value [7] was 14.1 ± 0.9^e,g (6) pmol per oocyte/h and the Km [7] was 94 ± 4 µM. For the same compound, the rate of uptake [8, 16] was 0.063 ± 0.010 pmol per oocyte/h, the rate of uptake [8, 17] was 0.05 ± 0.01 pmol per oocyte/h and the rate of uptake [9] was 0.30 ± 0.07 pmol per oocyte/h. The “rate of uptake mediated by PfCRT^K1, greater than that measured for PfCRT^Dd2” value [10] was 17–35%, the rate of uptake [10] was 0.38 ± 0.08 pmol per oocyte/h and the “rate of transport, times lower than that measured for CQ” value [10] was 10–15 times. The “Apparent Vmax” value [10, 18] was 24.4 ± 1.6 (7) pmol per oocyte/h and the Km ([10]; transport via PfCRT^K1 in oocytes, CQ pH 6.0, quinine and quinidine pH 5.0, 76K-PfCRT^K1 control subtracted, read-out: Apparent Km) was 84 ± 1 µM.
For `C=C[C@H]1C[N@@]2CC[C@H]1C[C@H]2[C@H](O)c1ccnc2ccc(OC)cc12` [quinine], the “Vmax of 76I-PfCRT^K1, times lower than the value obtained for PfCRT^K1” value ([6]; quinine transport) was ~ 115 times, the “Apparent Vmax” value [6] was 0.09 ± 0.01^c,f (4) pmol per oocyte/h and the “Apparent Vmax” value [7] was 13.0 ± 1.0^d,f (6) pmol per oocyte/h. It also gave a Km [7] of 41 ± 2.6 µM, a rate of uptake [8, 16] of 0.10 ± 0.01 pmol per oocyte/h and a rate of uptake [8, 17] of 0.10 ± 0.01 pmol per oocyte/h. For the same compound, the rate of uptake [9] was 0.44 ± 0.04 pmol per oocyte/h, the “rate of uptake mediated by PfCRT^K1, greater than that measured for PfCRT^Dd2” value [10] was 17–35% and the rate of uptake [10] was 0.55 ± 0.03 pmol per oocyte/h. For the same compound, the “rate of transport, times lower than that measured for CQ” value [10] was 10–15 times and the “Apparent Vmax” value [10, 18] was 10.3 ± 0.8 (7) pmol per oocyte/h.
For `CC(C)(C)NC(=O)[C@@H]1C[C@@H]2CCCC[C@@H]2CN1C[C@@H](O)[C@H](Cc1ccccc1)NC(=O)[C@H](CC(N)=O)NC(=O)c1ccc2ccccc2n1` [saquinavir], the IC50 [11] is listed as 13 ± 1 µM, the “effect on [3H]amantadine transport” value [12] is listed as “inhibited” and the “effect on [3H]amantadine transport” value [13] is listed as “inhibited”. The “effect on [3H]amantadine transport” value [14] was “inhibited”.
For `NCCCNCCCCNCCCN` [spermine], the “effect on accumulation of [3H]CQ in oocytes expressing PfCRT” value [4] was “do not inhibit” and the “effect on [3H]CQ uptake (trans-stimulation)” value [5] was “neither spermine nor histidine altered”.
For `COc1ccc(CCN(C)CCCC(C#N)(c2ccc(OC)c(OC)c2)C(C)C)cc1OC` (centres unmarked) [verapamil], the “effect on [3H]amantadine transport” value [12] was “inhibited”, the “effect on [3H]amantadine transport” value [13] was “inhibited” and the “effect on [3H]amantadine transport” value [14] was “inhibited”.
